system: human renal proximal tubule epithelial cells (RPTEC); experiment: Cytotoxicity Assay, RPTEC Cells; type: cell-based
Description: Cells were plated at 3,000 cells/well (RPTEC) in 96-well plates and were incubated overnight at 37° C. The compounds were added to the wells, and the cells were incubated for 4 days. Alomar Blue was added to one set of plates and incubated for 4 hours. The plates were read when the compound was added (time zero) and at the end of the study. Fluorescence was read using 530 nm (excitation) and 590 nm (emission) according to the manufacturer's instructions.

| Substance | Cytotoxicity (Kidney Epithelial IC50) [µg/mL] |
| --- | --- |
| Poly(1,3-bis(1-pentyl-piperidin-4-yl)propane [Poly(4,4′-Trimethylenedipiperidine/Glutaraldehyde (1:1)), <1] | 2 |
| Poly(1,3-bis(1-pentyl-piperidin-4-yl)propane [Poly(4,4′-Trimethylenedipiperidine/Glutaraldehyde (1:1)), >1] | 2 |
| Poly((1,1′-dipentyl)-4,4-dipiperidine) [4,4′-dipiperidine/Glutaraldehyde <10K] | 1.5 |
| Poly((1,1′-dipentyl)-4,4-dipiperidine) [Poly(1:1 Dipiperidine:Glutaraldehyde); <10K molecular weight] | 2 |
| Poly(1,3-bis(1,5-dimethybenzene)piperidin-4-yl)propane) | 1.5 |
| Poly(1,3-bis(1-pentyl-piperidin-4-yl)propane [4,4′-Trimethylenedipiperidine/Glutaraldehyde >10K] | 1.5 |
| Poly(1,3-bis(1-pentyl-piperidin-4-yl)propane [4,4′-Trimethylenedipiperidine/Glutaraldehyde (1:2.5) <10K] | 2 |
| Poly(1,3-bis(1-pentyl-piperidin-4-yl)propane [4,4′-Trimethylenedipiperidine/Glutaraldehyde <10K] | 331 |
| Poly(1,3-bis(1-pentyl-piperidin-4-yl)propane [4,4′-Trimethylenedipiperidine/Glutaraldehyde (1:3.5) <10K] | 2 |
| Poly(1,3-bis(1-pentyl-piperidin-4-yl)propane [4,4′-Trimethylenedipiperidine/Glutaraldehyde (1:1.5) >10K] | 5 |
| Poly(1,3-bis N-(1,4-dimethybenzene)piperidin-4-yl)propane) | 1.5 |
| Poly(1,3-bis(1-pentyl-piperidin-4-yl)propane [4,4′-Trimethylenedipiperidine/Glutaraldehyde (1:1.5) <10K] | 4 |
